The text below walks through data of patent US20100286136A1, “DIHYDRONAPHTHYRIDINYL AND RELATED COMPOUNDS FOR USE IN TREATING OPHTHALMOLOGICAL DISORDERS” (priority 2009, published 2010).

The term IC50 denotes the concentration needed to halve the response being measured.

Some results are limits rather than exact numbers.

For this experiment, the target named is T1, CCR2b (Homo sapiens, UniProt P41597).
T1 construct: host or cells: AequoScreen CCR2b cells
T1 sequence (P41597 1-360 isoform P41597-2): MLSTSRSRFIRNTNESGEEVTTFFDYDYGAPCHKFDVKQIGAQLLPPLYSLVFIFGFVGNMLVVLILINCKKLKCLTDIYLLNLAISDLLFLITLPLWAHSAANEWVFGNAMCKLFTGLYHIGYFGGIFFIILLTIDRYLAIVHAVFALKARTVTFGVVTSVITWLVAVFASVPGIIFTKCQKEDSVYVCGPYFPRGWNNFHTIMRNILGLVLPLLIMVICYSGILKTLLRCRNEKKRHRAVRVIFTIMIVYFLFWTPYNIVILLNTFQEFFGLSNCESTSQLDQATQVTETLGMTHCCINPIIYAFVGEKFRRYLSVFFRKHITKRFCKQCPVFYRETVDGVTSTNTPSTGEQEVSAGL
Briefly: AequoScreen CCR2b calcium flux assay, antagonist mode against reference agonist MCP-1. In kind it is cell-based. Particulars: AequoScreen CCR2b (FAST-060A) cells; inhibition of reference agonist MCP-1 at its EC80; read-out: IC50 (μM) Ca^++flux. The method, then:
The biological activity of the compounds described herein can be evaluated using assays known in the art, such as the AequoScreen™ assay.
AequoScreen™ CCR2b (FAST-060A) cells grown to mid-log phase in culture media without antibiotics are detached with PBS-EDTA, centrifuged and resuspended in assay buffer (DMEM/HAM's F12 with HEPES, without phenol red+0.1% BSA protease free) at a concentration of 1×10^6 cells/mL. Cells are incubated at room temperature for at least 4 hours with coelenterazine h. Dose response curves are performed before testing. The reference agonist is MCP-1.
For agonist testing, 50 μL of cell suspension is mixed with 50 μL of test compound in a 96-well plate. The resulting emission of light is recorded using a Hamamatsu Functional Drug Screening System 6000 (FDSS 6000).
Following an incubation of 15 minutes after the first injection, 100 μL of the resulting cell suspension containing the test compound is mixed with 100 μL of the reference agonist in the 96 well test plate. The resulting emission of light is recorded using the same luminometer as for agonist testing.
Agonist activity of a test compound can be expressed as a percentage of the activity of the reference agonist at its EC100 concentration. Antagonist activity of a test compound can be expressed as a percentage of the inhibition of reference agonist activity at its EC80 concentration.
For orientation: Calcium flux is commonly read through the fluorescence of an indicator in the cells.
For the molecule `COCC1(C(=O)N2CCc3ncc(C(F)(F)F)cc3C2)CCN(C2CCC(c3ccc(OC)nc3)CC2)C1` (single isomer, unassigned) [Example 50, 51 (Isomer I), (3-(Methoxymethyl)-1-(4-(6-methoxypyridin-3-yl)cyclohexyl)pyrrolidin-3-yl)(3-(trifluoromethyl)-7,8-dihydro-1,6-naphthyridin-6(5H)-yl)methanone], the half-maximal inhibitory concentration (IC50) was below 0.2 µM.
To “3-Ethyl-6-((3-(methoxymethyl)-3-(3-(trifluoromethyl)-5,6,7,8-tetrahydro-1,6-naphthyridine-6-carbonyl)pyrrolidin-1-yl)methyl)benzo[d]oxazol-2(3H)-one [Example 42]” belongs below 0.2 µM; to `COCC1(C(=O)N2CCc3ncc(C(F)(F)F)cc3C2)CCN(C2CCC(O)(C3CC3)CC2)C1` (stereo not drawn) [Example 35], 0.2 to 1 µM.
Next, `COCC1(C(=O)N2CCc3ncc(C(F)(F)F)cc3C2)CCN(Cc2ccc3oc(=O)n(C)c3c2)C1` (single isomer, unassigned) [Example 40, 41 (Enantiomer II)]: 0.2 to 1 µM; `COCC1(C(=O)N2CCc3ncc(C(F)(F)F)cc3C2)CCN(Cc2ccc3ccc(=O)n(C)c3c2)C1` (single isomer, unassigned) [Example 26, 27 (Enantiomer II)]: above 1 µM; `COCC1(C(=O)N2CCc3ncc(C(F)(F)F)cc3C2)CCN(C2CCC(O)(c3ccc(OC)nc3)CC2)C1` (single isomer, unassigned) [Example 30, 31 (Isomer I), (1-(4-Hydroxy-4-(6-methoxypyridin-3-yl)cyclohexyl)-3-(methoxymethyl)pyrrolidin-3-yl)(3-(trifluoromethyl)-7,8-dihydro-1,6-naphthyridin-6(5H)-yl)methanone]: below 0.2 µM.
For the molecule `COCC1(C(=O)N2CCc3ncc(C(F)(F)F)cc3C2)CCN(C(C)c2ccc3c(c2)N(C)C(=O)CO3)C1` (stereo not drawn) [Example 33, 6-(1-(3-(Methoxymethyl)-3-(3-(trifluoromethyl)-5,6,7,8-tetrahydro-1,6-naphthyridine-6-carbonyl)pyrrolidin-1-yl)ethyl)-4-methyl-2H-benzo[b][1,4]oxazin-3(4H)-one], the IC50 was below 0.2 µM.
As for `COc1cc2c(cc1CN1CCC(CC3CC3)(C(=O)N3CCc4ncc(C(F)(F)F)cc4C3)C1)OC(C)C2` (stereo not drawn) [Example 10, (3-(Cyclopropylmethyl)-1-((5-methoxy-2-methyl-2,3-dihydrobenzofuran-6-yl)methyl)pyrrolidin-3-yl)(3-(trifluoromethyl)-7,8-dihydro-1,6-naphthyridin-6(5H)-yl)methanone], the concentration for half-maximal inhibition (IC50) is above 1 µM.
`CC(C)CC1(C(=O)N2CCc3ncc(C(F)(F)F)cc3C2)CCN(Cc2ccc3ccc(=O)n(C)c3c2)CC1` [Example 1, 7-((4-Isobutyl-4-(3-(trifluoromethyl)-5,6,7,8-tetrahydro-1,6-naphthyridine-6-carbonyl)piperidin-1-yl)methyl)-1-methylquinolin-2(1H)-one]: the IC50 is 0.2 to 1 µM.
Turning to `Cn1c(=O)oc2ccc(CN3CCC(CC#N)(C(=O)N4CCc5ncc(C(F)(F)F)cc5C4)C3)cc21` (stereo not drawn) [Example 48, 2-(1-((3-methyl-2-oxo-2,3-dihydrobenzo[d]oxazol-5-yl)methyl)-3-(3-(trifluoromethyl)-5,6,7,8-tetrahydro-1,6-naphthyridine-6-carbonyl)pyrrolidin-3-yl)acetonitrile], the IC50 is 0.2 to 1 µM.
To `COCC1(C(=O)N2CCc3ncc(C(F)(F)F)cc3C2)CCN(C2CCC(c3ccc(F)cc3)CC2)C1` (single isomer, unassigned) [Example 56, 57 (Isomer I), (1-(4-(4-Fluorophenyl)cyclohexyl)-3-(methoxymethyl)pyrrolidin-3-yl)(3-(trifluoromethyl)-7,8-dihydro-1,6-naphthyridin-6(5H)-yl)methanone] belongs below 0.2 µM; to `O=C(N1CCc2ncc(C(F)(F)F)cc2C1)C1(CC2CC2)CCN(Cc2ccc3[nH]ncc3c2)C1` (stereo not drawn) [Example 17, (1-((1H-Indazol-5-yl)methyl)-3-(cyclopropylmethyl)pyrrolidin-3-yl)(3-(trifluoromethyl)-7,8-dihydro-1,6-naphthyridin-6(5H)-yl)methanone], above 1 µM.
Consider `COc1cc(CN2CCC(CC(C)C)(C(=O)N3CCc4ncc(C(F)(F)F)cc4C3)CC2)ccc1O` [Example 2, (1-(4-Hydroxy-3-methoxybenzyl)-4-isobutylpiperidin-4-yl)(3-(trifluoromethyl)-7,8-dihydro-1,6-naphthyridin-6(5H)-yl)methanone], for which the concentration for half-maximal inhibition (IC50) was above 1 µM.
`COCC1(C(=O)N2CCc3ncc(C(F)(F)F)cc3C2)CCN(C(C)c2ccc3oc(=O)n(C)c3c2)C1` (stereo not drawn) [Example 34, 5-(1-(3-(Methoxymethyl)-3-(3-(trifluoromethyl)-5,6,7,8-tetrahydro-1,6-naphthyridine-6-carbonyl)pyrrolidin-1-yl)ethyl)-3-methylbenzo[d]oxazol-2(3H)-one]: the half-maximal inhibitory concentration (IC50) is below 0.2 µM.
Next, `Cn1c(=O)ccc2ccc(CN3CCC(CC4CC4)(C(=O)N4CCc5ncc(C(F)(F)F)cc5C4)C3)cc21` (stereo not drawn) [Example 3, 7-((3-(Cyclopropylmethyl)-3-(3-(trifluoromethyl)-5,6,7,8-tetrahydro-1,6-naphthyridine-6-carbonyl)pyrrolidin-1-yl)methyl)-1-methylquinolin-2(1H)-one]: below 0.2 µM; `O=C(N1CCc2ncc(C(F)(F)F)cc2C1)C1(CC2CC2)CCN(Cc2ccc(O)c(F)c2)C1` (stereo not drawn) [Example 7, (3-(Cyclopropylmethyl)-1-(3-fluoro-4-hydroxybenzyl)pyrrolidin-3-yl)(3-(trifluoromethyl)-7,8-dihydro-1,6-naphthyridin-6(5H)-yl)methanone]: above 1 µM; `COCC1(C(=O)N2CCc3ncc(C(F)(F)F)cc3C2)CCN(C(C)c2ccc3c(c2)n(C)c(=O)n3C)C1` (stereo not drawn) [Example 29, 5-(1-(3-(Methoxymethyl)-3-(3-(trifluoromethyl)-5,6,7,8-tetrahydro-1,6-naphthyridine-6-carbonyl)pyrrolidin-1-yl)ethyl)-1,3-dimethyl-1H-benzo[d]imidazol-2(3H)-one]: below 0.2 µM.
As to “5-Bromo-6-((3-(methoxymethyl)-3-(3-(trifluoromethyl)-5,6,7,8-tetrahydro-1,6-naphthyridine-6-carbonyl)pyrrolidin-1-yl)methyl)-3-methylbenzo[d]oxazol-2(3H)-one [Example 43]”, the 50% inhibitory concentration (IC50) was below 0.2 µM.
In the case of `CC(C)CC1(C(=O)N2CCc3ncc(C(F)(F)F)cc3C2)CCN(Cc2ccc3c(c2)sc(=O)n3C)CC1` [Example 58, 6-((4-Isobutyl-4-(3-(trifluoromethyl)-5,6,7,8-tetrahydro-1,6-naphthyridine-6-carbonyl)piperidin-1-yl)methyl)-3-methylbenzo[d]thiazol-2(3H)-one], the IC50 was above 1 µM.
To `COCC1(C(=O)N2CCc3ncc(C(F)(F)F)cc3C2)CCN(Cc2cc3c(ccc(=O)n3C)cc2Cl)C1` (stereo not drawn) [Example 36, 6-Chloro-7-((3-(methoxymethyl)-3-(3-(trifluoromethyl)-5,6,7,8-tetrahydro-1,6-naphthyridine-6-carbonyl)pyrrolidin-1-yl)methyl)-1-methylquinolin-2(1H)-one] belongs 0.2 to 1 µM.
Regarding `COCC1(C(=O)N2CCc3ncc(C(F)(F)F)cc3C2)CCN(Cc2ccc3sc(=O)n(C)c3c2)C1` (stereo not drawn) [Example 28, 5-((3-(Methoxymethyl)-3-(3-(trifluoromethyl)-5,6,7,8-tetrahydro-1,6-naphthyridine-6-carbonyl)pyrrolidin-1-yl)methyl)-3-methylbenzo[d]thiazol-2(3H)-one], the IC50 was below 0.2 µM.
Next, `O=C(N1CCc2ncc(C(F)(F)F)cc2C1)C1(CC2CC2)CCN(Cc2ccc3sc(=O)[nH]c3c2)C1` (stereo not drawn) [Example 12, 5-((3-(Cyclopropylmethyl)-3-(3-(trifluoromethyl)-5,6,7,8-tetrahydro-1,6-naphthyridine-6-carbonyl)pyrrolidin-1-yl)methyl)benzo[d]thiazol-2(3H)-one]: 0.2 to 1 µM; `O=C(N1CCc2ncc(C(F)(F)F)cc2C1)C1(CC2CC2)CCN(CC2CCOCC2)C1` (stereo not drawn) [Example 8, (3-(Cyclopropylmethyl)-1-((tetrahydro-2H-pyran-4-yl)methyl)pyrrolidin-3-yl)(3-(trifluoromethyl)-7,8-dihydro-1,6-naphthyridin-6(5H)-yl)methanone]: 0.2 to 1 µM.
Consider `CC(c1ccc2c(c1)n(C)c(=O)n2C)N1CCC(CC2CC2)(C(=O)N2CCc3ncc(C(F)(F)F)cc3C2)C1` (stereo not drawn) [Example 16, 5-(1-(3-(Cyclopropylmethyl)-3-(3-(trifluoromethyl)-5,6,7,8-tetrahydro-1,6-naphthyridine-6-carbonyl)pyrrolidin-1-yl)ethyl)-1,3-dimethyl-1H-benzo[d]imidazol-2(3H)-one], for which the IC50 is above 1 µM.
